Results from patent US7968601B2, “Adamantyl acetamides as 11-β hydroxysteroid dehydrogenase inhibitors” (Janssen Pharmaceutica N.V., priority 2002, dated 2011).
Structures can show the parent of a compound that is named as a salt.

SMILES	melting point [°C]
Cc1cccc(C(C)(C)C(=O)N[C@H]2[C@@H]3CC4C[C@H]2C[C@](F)(C4)C3)c1 [Compound 187]	115 to 117
COc1cccc(C(C)(C)C(=O)N[C@@H]2[C@@H]3CC4C[C@H]2C[C@](O)(C4)C3)c1 [Compound 155]	165 to 167
COc1cccc(C(C)(C)C(=O)N[C@H]2[C@@H]3CC4C[C@H]2C[C@](F)(C4)C3)c1 [Compound 189]	105 to 107
COc1cccc(C(C)(C)C(=O)N[C@@H]2[C@@H]3CC4C[C@H]2C[C@](F)(C4)C3)c1 [Compound 188]	110 to 112

The next lines start with the values.

melting point [°C]	SMILES
215 to 220	O=C(O)COc1cccc2c1CCN(C(=O)NC1C3CC4CC(C3)CC1C4)C2 (centres unmarked) [Compound 257]
145 to 147	O=C(NC1C2CC3CC(C2)CC1C3)N1CCc2ccccc2C1 (centres unmarked) [Compound 201]
208 to 210	CC(C)(C(=O)N[C@H]1[C@@H]2CC3C[C@H]1C[C@](F)(C3)C2)c1cccc(OCCN2CCOCC2)c1 (as salt: HCl) [Compound 228]
182 to 184	O=C(N[C@H]1[C@@H]2CC3C[C@H]1C[C@](F)(C3)C2)N1CCCc2ccccc21 [Compound 226]
